Measured values: patent publication US7250442B2, “Dihydroindol-2-one derivatives as steroid hormone nuclear receptor modulators” (Eli Lilly and Company, priority 2003, dated 2007)
pKi: −log10 of the molar value.

Each compound was assayed against T1, human MR (Homo sapiens, UniProt P08235) (assay: Mineralocorticoid Receptor Binding Assay ([3H]-aldosterone displacement)). Details: full length human MR expressed in Sf9 cells, 0.5 nM [3H]-aldosterone.
T1 construct: The full length human MR gene is cloned from a human kidney or human brain cDNA library; made in house; host or cells: Sf9 insect cells (baculovirus, pAcHLT transfer vector)
T1 sequence (P08235 1-984): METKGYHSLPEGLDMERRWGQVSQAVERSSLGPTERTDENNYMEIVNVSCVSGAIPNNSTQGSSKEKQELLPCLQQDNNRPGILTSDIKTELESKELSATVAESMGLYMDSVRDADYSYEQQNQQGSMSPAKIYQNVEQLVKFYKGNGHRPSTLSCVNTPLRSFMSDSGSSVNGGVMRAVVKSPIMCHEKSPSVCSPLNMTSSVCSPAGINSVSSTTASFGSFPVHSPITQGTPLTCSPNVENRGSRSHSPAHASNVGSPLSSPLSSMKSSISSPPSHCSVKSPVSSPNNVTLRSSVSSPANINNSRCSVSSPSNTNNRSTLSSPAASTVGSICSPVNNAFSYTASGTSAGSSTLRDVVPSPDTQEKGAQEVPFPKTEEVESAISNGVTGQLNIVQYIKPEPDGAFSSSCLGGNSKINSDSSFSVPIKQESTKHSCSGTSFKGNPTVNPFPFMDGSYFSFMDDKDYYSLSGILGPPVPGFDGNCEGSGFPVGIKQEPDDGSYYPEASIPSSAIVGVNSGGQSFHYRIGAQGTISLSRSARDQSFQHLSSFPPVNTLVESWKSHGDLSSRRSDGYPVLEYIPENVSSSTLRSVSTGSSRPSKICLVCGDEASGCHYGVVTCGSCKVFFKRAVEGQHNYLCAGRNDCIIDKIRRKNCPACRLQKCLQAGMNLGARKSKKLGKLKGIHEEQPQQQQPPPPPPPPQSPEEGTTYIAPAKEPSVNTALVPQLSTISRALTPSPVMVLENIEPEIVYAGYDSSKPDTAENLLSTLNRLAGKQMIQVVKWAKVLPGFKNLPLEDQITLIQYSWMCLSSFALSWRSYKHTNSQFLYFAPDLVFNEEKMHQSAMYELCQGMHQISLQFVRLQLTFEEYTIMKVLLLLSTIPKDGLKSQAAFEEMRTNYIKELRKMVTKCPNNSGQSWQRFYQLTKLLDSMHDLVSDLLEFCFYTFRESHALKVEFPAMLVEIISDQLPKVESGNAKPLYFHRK
Method: Mineralocorticoid Receptor Binding Assay:
The full length human MR gene is cloned from a human kidney or human brain cDNA library. Briefly, using synthetic oligonucleotide primers (Eli Lilly and Company, Indianapolis) directed to nucleotides 20-54 and 3700-3666 of the human MR, polymerase chain reaction (PCR) is performed under standard conditions using a human cDNA library. The PCR reaction is performed in a final volume of 50 μl containing about 1 μl of a 50× stock solution of polymerase; about 1 μl of a 50× stock solution of dNTP; about 5 μl of an appropriate PCR buffer; about 1 μl of each primer; about 5 μl of a H. kidney or H. brain cDNA library; and about 36 μl of water. The reaction is allowed to denature for about 30 seconds at 95 degrees Celsius, anneal for about 30 seconds at 55 degrees Celsius, and extend for about 5 minutes at 72 degrees Celsius, the sequence being repeated for a total of about 35 cycles. The desired PCR product (3.68 Kb) is confirmed by gel electrophoresis and subsequently cut from the gel and stored at about −20 degrees Celsius until extraction. To extract the cDNA product from the agarose gel, the QIAEX II Gel Extraction protocol (QIAGEN, Inc.) is employed according to the manufacturer's instructions. Following extraction, the MR cDNA is cloned into an appropriate cloning vector (Zero Blunt TOPO PCR Cloning Kit (Invitrogen, Inc.) and a pAcHLT-baculovirus transfer vector (B.D./Pharminogen), then expressed in SF9 insect cells, essentially according to manufacturer's instructions. Sf9 cells are grown at a scale where gram quantity cell pellets are obtained for subsequent use in the MR binding assay. Harvested cell pellets are lysed by repeated freeze-thaw cycles (about 4) in a suitable lysis buffer then centrifuged at about 1×10^3 G (with the supernatant being saved for future assays).
MR binding assays are performed in a final total volume of about 250 μl containing about 20-25 μg of protein and 0.5 nM of [^3H]-aldosterone plus varying concentrations of test compound or vehicle. The assay binding buffer consists of 30 mM sodium molybdate, 30 mM of TRIS-HCl, 5 mM sodium phosphate, 5 mM sodium pyrophosphate, and about 10% glycerol, pH=7.5.
Briefly, assays are prepared at RT in 96-well Falcon 3072 plates, each well containing 210 μl of binding buffer, 10 μl of [^3H]-aldosterone, 10 μl of test compound/vehicle, and 20 μl of the resuspended receptor protein extract. Incubations are carried out at 4 degrees Celsius with shaking for about 16 hours. 200 μl aliquots of each incubation are filtered onto Millipore HA 0.45 micron 96-well filter plates, pre-moistened with cold 30 mM TRIS-HCl. The filter plates are suctioned dry with vacuum and immediately washed 3× with cold 30 mM TRIS-HCl. The plates are then punched out and the amount of receptor-ligand complex is determined by liquid scintillation counting using 4 ml of Ready Protein Plus™ liquid scintillation cocktail.
IC50 values (defined as the concentration of test compound required to decrease [^3H]-aldosterone binding by 50%) are then determined. Ki values for each respective test compound can then be calculated by application of the Cheng-Prusoff equation as described in Cheng et al., Relationship Between The Inhibition Constant (Ki) and The Concentration of Inhibitor Which Causes 50% Inhibition (IC50) of an Enzymatic Reaction, Biochem. Pharmacol., 22: 3099-31088; (1973).

Row | Compound | pKi
1 | Cc1cc(C2(c3cc(C)c(O)c(C)c3)C(=O)N(Cc3ccc(OC(F)(F)F)cc3)c3ccccc32)cc(C)c1O [Example 67, 3,3-Bis-(4-hydroxy-3,5-dimethyl-phenyl)-1-(4-trifluoromethoxy-benzyl)-1,3-dihydro-indol-2-one] | ≥ 6.30
2 | Cc1cc(C2(c3cc(C)c(O)c(C)c3)C(=O)N(Cc3ccc(C(F)(F)F)cc3C(F)(F)F)c3ccccc32)cc(C)c1O [Example 68, 1-(2,4-Bis-trifluoromethyl-benzyl)-3,3-bis-(4-hydroxy-3,5-dimethyl-phenyl)-1,3-dihydro-indol-2-one] | ≥ 6.30
3 | Cc1cc(C2(c3cc(C)c(O)c(C)c3)C(=O)N(Cc3cccc(C)c3F)c3ccccc32)cc(C)c1O [Example 70, 1-(2-Fluoro-3-methyl-benzyl)-3,3-bis-(4-hydroxy-3,5-dimethyl-phenyl)-1,3-dihydro-indol-2-one] | ≥ 6.30
4 | Cc1cc(C2(c3cc(C)c(O)c(C)c3)C(=O)N(Cc3ccc([N+](=O)[O-])o3)c3ccccc32)cc(C)c1O [Example 73, 3,3-Bis-(4-hydroxy-3,5-dimethyl-phenyl)-1-(5-nitro-furan-2-ylmethyl)-1,3-dihydro-indol-2-one] | ≥ 6.30
5 | Cc1cc(C2(c3cc(C)c(O)c(C)c3)C(=O)N(Cc3ccc(OCc4ccccc4)cc3)c3ccccc32)cc(C)c1O [Example 74, 1-(4-Benzyloxy-benzyl)-3,3-bis-(4-hydroxy-3,5-dimethyl-phenyl)-1,3-dihydro-indol-2-one] | ≥ 6.30
6 | Cc1cc(C2(c3cc(C)c(O)c(C)c3)C(=O)N(Cc3c(F)cccc3Cl)c3ccccc32)cc(C)c1O [Example 76, 1-(2-Chloro-6-fluoro-benzyl)-3,3-bis-(4-hydroxy-3,5-dimethyl-phenyl)-1,3-dihydro-indol-2-one] | ≥ 6.30
7 | CCCCCN1C(=O)C(c2cc(C)c(O)c(C)c2)(c2cc(C)c(O)c(C)c2)c2ccccc21 [Example 77, 3,3-Bis-(4-hydroxy-3,5-dimethyl-phenyl)-1-pentyl-1,3-dihydro-indol-2-one] | ≥ 6.30
8 | Cc1cc(C2(c3cc(C)c(O)c(C)c3)C(=O)N(CC#N)c3ccccc32)cc(C)c1O [Example 78, [3,3-Bis-(4-hydroxy-3,5-dimethyl-phenyl)-2-oxo-2,3-dihydro-indol-1-yl]-acetonitrile] | ≥ 6.30
9 | Cc1cc(C2(c3cc(C)c(O)c(C)c3)C(=O)N(Cc3ccccc3OC(F)F)c3ccccc32)cc(C)c1O [Example 79, 1-(2-Difluoromethoxy-benzyl)-3,3-bis-(4-hydroxy-3,5-dimethyl-phenyl)-1,3-dihydro-indol-2-one] | ≥ 6.30
10 | CCOCCN1C(=O)C(c2cc(C)c(O)c(C)c2)(c2cc(C)c(O)c(C)c2)c2ccccc21 [Example 80, 1-(2-Ethoxy-ethyl)-3,3-bis-(4-hydroxy-3,5-dimethyl-phenyl)-1,3-dihydro-indol-2-one] | ≥ 6.30
11 | Cc1cc(C2(c3cc(C)c(O)c(C)c3)C(=O)N(Cc3ccc(Cl)cc3F)c3ccccc32)cc(C)c1O [Example 83, 1-(4-Chloro-2-fluoro-benzyl)-3,3-bis-(4-hydroxy-3,5-dimethyl-phenyl)-1,3-dihydro-indol-2-one] | ≥ 6.30
12 | Cc1cc(C2(c3cc(C)c(O)c(C)c3)C(=O)N(Cc3ccc(-c4csnn4)cc3)c3ccccc32)cc(C)c1O [Example 84, 3,3-Bis-(4-hydroxy-3,5-dimethyl-phenyl)-1-(4-[1,2,3]thiadiazol-4-yl-benzyl)-1,3-dihydro-indol-2-one] | ≥ 6.30

Results, then the compound that gave them:

Row | pKi | Compound
13 | ≥ 6.30 | Cc1cc(C2(c3cc(C)c(O)c(C)c3)C(=O)N(Cc3ccccc3F)c3ccccc32)cc(C)c1O [Example 50, 1-(2-Fluoro-benzyl)-3,3-bis-(4-hydroxy-3,5-dimethyl-phenyl)-1,3-dihydro-indol-2-one]
14 | ≥ 6.30 | Cc1cc(C2(c3cc(C)c(O)c(C)c3)C(=O)N(Cc3ccccc3C(F)(F)F)c3ccccc32)cc(C)c1O [Example 53, 3,3-Bis-(4-hydroxy-3,5-dimethyl-phenyl)-1-(2-trifluoromethyl-benzyl)-1,3-dihydro-indol-2-one]
15 | ≥ 6.30 | Cc1cc(C2(c3cc(C)c(O)c(C)c3)C(=O)N(Cc3ccccc3-c3ccccc3)c3ccccc32)cc(C)c1O [Example 54, 1-Biphenyl-2-ylmethyl-3,3-bis-(4-hydroxy-3,5-dimethyl-phenyl)-1,3-dihydro-indol-2-one]
16 | ≥ 6.30 | COc1cccc(CN2C(=O)C(c3cc(C)c(O)c(C)c3)(c3cc(C)c(O)c(C)c3)c3ccccc32)c1 [Example 56, 3,3-Bis-(4-hydroxy-3,5-dimethyl-phenyl)-1-(3-methoxy-benzyl)-1,3-dihydro-indol-2-one]
17 | ≥ 6.30 | Cc1cc(C2(c3cc(C)c(O)c(C)c3)C(=O)N(Cc3ccc(Br)cc3)c3ccccc32)cc(C)c1O [Example 58, 1-(4-Bromo-benzyl)-3,3-bis-(4-hydroxy-3,5-dimethyl-phenyl)-1,3-dihydro-indol-2-one]
18 | ≥ 6.30 | Cc1cc(C2(c3cc(C)c(O)c(C)c3)C(=O)N(Cc3ccc([N+](=O)[O-])cc3)c3ccccc32)cc(C)c1O [Example 62, 3,3-Bis-(4-hydroxy-3,5-dimethyl-phenyl)-1-(4-nitro-benzyl)-1,3-dihydro-indol-2-one]
19 | ≥ 6.30 | Cc1cc(C2(c3cc(C)c(O)c(C)c3)C(=O)N(Cc3ccccc3Br)c3ccccc32)cc(C)c1O [Example 63, 1-(2-Bromo-benzyl)-3,3-bis-(4-hydroxy-3,5-dimethyl-phenyl)-1,3-dihydro-indol-2-one]
20 | ≥ 6.30 | Cc1cc(C2(c3cc(C)c(O)c(C)c3)C(=O)N(Cc3cccc(Br)c3)c3ccccc32)cc(C)c1O [Example 64, 1-(3-Bromo-benzyl)-3,3-bis-(4-hydroxy-3,5-dimethyl-phenyl)-1,3-dihydro-indol-2-one]
21 | ≥ 6.30 | Cc1cc(C2(c3cc(C)c(O)c(C)c3)C(=O)N(Cc3ccccc3[N+](=O)[O-])c3ccccc32)cc(C)c1O [Example 65, 3,3-Bis-(4-hydroxy-3,5-dimethyl-phenyl)-1-(2-nitro-benzyl)-1,3-dihydro-indol-2-one]
22 | ≥ 6.30 | Cc1cc(C2(c3cc(C)c(O)c(C)c3)C(=O)N(Cc3cccc(F)c3F)c3ccccc32)cc(C)c1O [Example 66, 1-(2,3-Difluoro-benzyl)-3,3-bis-(4-hydroxy-3,5-dimethyl-phenyl)-1,3-dihydro-indol-2-one]
